SMILES strings stand for the structures. “And” between values parts separate entries of the source, which are not always exact repeats. Equal entries are not always repeated. Inconclusive results and toxic doses are left out.

For 13 molecules, T/C results are on record in PubChem BioAssay AID330 (DTP/NCI, 2004).

The subject of this assay is P388 leukemia ip, CD2F1 mice, survival T/C. Briefly: NCI In Vivo Anticancer Drug Screen. Data for tumor model P388 Leukemia (intraperitoneal) in CD2F1 (CDF1) mice. The settings on record: endpoint: median survival time, higher = longer survival. Put shortly: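 Mice carrying the transplanted tumor received test compound or vehicle. Survival was recorded in each group, and the value is the treated-group measurement divided by that of the vehicle-treated control group.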

Where [1] appears, read: dose: 50.0 mg/kg/injection, schedule: Q01DX009 (ip), vehicle: saline.
Setting [2] is: dose: 50.0 mg/kg/injection, schedule: Q01DX005 (ip), vehicle: Klucel (hydroxypropylcellulose) (HPC).
Setting [3] is: dose: 100.0 mg/kg/injection, schedule: Q01DX005 (ip), vehicle: Klucel (hydroxypropylcellulose) (HPC).
The mark [4] stands for this setting: dose: 200.0 mg/kg/injection, schedule: Q01DX005 (ip), vehicle: Klucel (hydroxypropylcellulose) (HPC).
[5] abbreviates: dose: 100.0 mg/kg/injection, schedule: Q01DX009 (ip), vehicle: saline with Tween-80.
Where [6] appears, read: dose: 25.0 mg/kg/injection, schedule: Q01DX005 (ip), vehicle: Klucel (hydroxypropylcellulose) (HPC).
The mark [7] stands for this setting: dose: 25.0 mg/kg/injection, schedule: Q01DX009 (ip), vehicle: saline with Tween-80.

In the case of `O=C(O)Cc1cccc2c(=O)cc(-c3ccccc3)oc12`, the T/C is 104 % of control (dose: 24.12 mg/kg/injection, schedule: Q01DX005 (ip), vehicle: saline); 101 % of control and 103 % of control and 106 % of control (dose: 30.0 mg/kg/injection, schedule: Q01DX009 (ip), vehicle: saline); 111 % of control (dose: 40.2 mg/kg/injection, schedule: Q01DX005 (ip), vehicle: saline); 109 % of control and 117 % of control and 122 % of control (dose: 44.0 mg/kg/injection, schedule: Q01DX009 (ip), vehicle: saline); 116 % of control (dose: 45.0 mg/kg/injection, schedule: Q01DX009 (ip), vehicle: sodium bicarbonate); 106 % of control under setting [1]. The T/C runs as follows: (dose: 60.0 mg/kg/injection, schedule: Q04DX002 (ip), vehicle: sodium bicarbonate) 103 % of control; (dose: 67.0 mg/kg/injection, schedule: Q01DX001 (ip), vehicle: sodium bicarbonate) 112 % of control; (dose: 90.0 mg/kg/injection, schedule: Q04DX002 (ip), vehicle: sodium bicarbonate) 118 % of control; (dose: 100.0 mg/kg/injection, schedule: Q01DX001 (ip), vehicle: sodium bicarbonate) 107 % of control; (dose: 111.67 mg/kg/injection, schedule: Q01DX005 (ip), vehicle: saline) 153 % of control; (dose: 150.0 mg/kg/injection, schedule: Q01DX001 (ip), vehicle: sodium bicarbonate) 106 % of control. Also, the T/C was 172 % of control (dose: 186.12 mg/kg/injection, schedule: Q01DX005 (ip), vehicle: saline); 112 % of control (dose: 200.0 mg/kg/injection, schedule: Q01DX001 (ip), vehicle: sodium bicarbonate); 103 % of control (dose: 223.0 mg/kg/injection, schedule: Q01DX001 (ip), vehicle: sodium bicarbonate); 116 % of control (dose: 300.0 mg/kg/injection, schedule: Q01DX001 (ip), vehicle: sodium bicarbonate); 112 % of control (dose: 333.0 mg/kg/injection, schedule: Q01DX001 (ip), vehicle: sodium bicarbonate); 114 % of control (dose: 400.0 mg/kg/injection, schedule: Q01DX001 (ip), vehicle: sodium bicarbonate). Besides, the T/C (dose: 500.0 mg/kg/injection, schedule: Q01DX001 (ip), vehicle: sodium bicarbonate) was 116 % of control.
With `CCN(CC)C1=Nc2ccccc2N(c2ccccc2)C(=S)C1`, the T/C was 106 % of control under setting [2], 103 % of control under setting [3] and 100 % of control under setting [4].
Take `CC1CN(C)CCN1C` (stereo not given): the T/C is, setting by setting: under setting [5], 100 % of control; (dose: 200.0 mg/kg/injection, schedule: Q01DX009 (ip), vehicle: saline with Tween-80) 100 % of control; (dose: 400.0 mg/kg/injection, schedule: Q01DX009 (ip), vehicle: saline with Tween-80) 95 % of control.
For the molecule `O=[N+](N=c1ccn([O-])cc1)c1cc[n+]([O-])cc1`, the T/C is, setting by setting: (dose: 1.56 mg/kg/injection, schedule: Q01DX009 (ip), vehicle: DMSO) 107 % of control; (dose: 3.0 mg/kg/injection, schedule: Q01DX009 (ip), vehicle: other) 107 % of control; (dose: 3.12 mg/kg/injection, schedule: Q01DX009 (ip), vehicle: DMSO) 100 % of control; (dose: 6.0 mg/kg/injection, schedule: Q01DX009 (ip), vehicle: other) 102 % of control; (dose: 6.25 mg/kg/injection, schedule: Q01DX009 (ip), vehicle: DMSO) 107 % of control; (dose: 12.5 mg/kg/injection, schedule: Q01DX009 (ip), vehicle: DMSO) 100 % of control. Further, the T/C is 98 % of control (dose: 12.5 mg/kg/injection, schedule: Q01DX009 (ip), vehicle: other); 100 % of control (dose: 25.0 mg/kg/injection, schedule: Q01DX009 (ip), vehicle: DMSO); 109 % of control (dose: 25.0 mg/kg/injection, schedule: Q01DX009 (ip), vehicle: other); 109 % of control (dose: 50.0 mg/kg/injection, schedule: Q01DX009 (ip), vehicle: other).
Regarding `COC(=O)[C@@]12OC[C@]34[C@H]([C@@H](O)[C@@H]1O)[C@@]1(C)CC(=O)C(O)=C(C)[C@@H]1C[C@H]3OC(=O)[C@H](OC(=O)C(N)Cc1ccccc1)[C@@H]24` (stereo not given in full), the T/C was 107 % of control (dose: 0.5 mg/kg/injection, schedule: Q01DX005 (ip), vehicle: Klucel (hydroxypropylcellulose) (HPC)); 103 % of control and 107 % of control (dose: 1.0 mg/kg/injection, schedule: Q01DX005 (ip), vehicle: Klucel (hydroxypropylcellulose) (HPC)); 108 % of control and 119 % of control (dose: 2.0 mg/kg/injection, schedule: Q01DX005 (ip), vehicle: Klucel (hydroxypropylcellulose) (HPC)); 112 % of control (dose: 4.0 mg/kg/injection, schedule: Q01DX005 (ip), vehicle: Klucel (hydroxypropylcellulose) (HPC)); 110 % of control (dose: 8.0 mg/kg/injection, schedule: Q01DX005 (ip), vehicle: Klucel (hydroxypropylcellulose) (HPC)); 96 % of control (dose: 125.0 micrograms/kg/injection, schedule: Q01DX005 (ip), vehicle: Klucel (hydroxypropylcellulose) (HPC)). The T/C was 107 % of control (dose: 250.0 micrograms/kg/injection, schedule: Q01DX005 (ip), vehicle: Klucel (hydroxypropylcellulose) (HPC)); 98 % of control (dose: 500.0 micrograms/kg/injection, schedule: Q01DX005 (ip), vehicle: Klucel (hydroxypropylcellulose) (HPC)); 107 % of control (dose: 1000.0 micrograms/kg/injection, schedule: Q01DX005 (ip), vehicle: Klucel (hydroxypropylcellulose) (HPC)).
With `CC(CO)c1cc2c(cc1O)[C@@]1(C)CCCC(C)(C)[C@@H]1CC2` (stereo not given in full), the T/C was 99 % of control under setting [6]; 102 % of control under setting [2]; 89 % of control under setting [3]; 89 % of control and 93 % of control under setting [4]; 88 % of control (dose: 400.0 mg/kg/injection, schedule: Q01DX005 (ip), vehicle: Klucel (hydroxypropylcellulose) (HPC)).
As to `O=C1C(N=Nc2cc(Cl)ccc2Cl)C(O)N(c2ccc(Cl)cc2)C(=S)N1c1cccc(Cl)c1Cl` (stereo not given), the T/C (dose: 100.0 mg/kg/injection, schedule: Q04DX002 (ip), vehicle: Klucel (hydroxypropylcellulose) (HPC)) is 100 % of control; the T/C (dose: 200.0 mg/kg/injection, schedule: Q04DX002 (ip), vehicle: Klucel (hydroxypropylcellulose) (HPC)) was 101 % of control; the T/C (dose: 400.0 mg/kg/injection, schedule: Q04DX002 (ip), vehicle: Klucel (hydroxypropylcellulose) (HPC)) was 99 % of control.
Consider `NC(CS(=O)c1ccc(Cl)cc1)C(=O)O` (stereo not given), for which the T/C runs as follows: (dose: 6.25 mg/kg/injection, schedule: Q01DX009 (ip), vehicle: saline with Tween-80) 95 % of control; (dose: 12.5 mg/kg/injection, schedule: Q01DX009 (ip), vehicle: saline with Tween-80) 95 % of control; under setting [7], 100 % of control.
Take `CCOC(=C\C=C\C1=[N+](C)c2ccccc2C1(C)C)/C=C/C=C1/N(C)c2ccccc2C1(C)C`: the T/C is 117 % of control (dose: 1.56 mg/kg/injection, schedule: Q01DX009 (ip), vehicle: saline with Tween-80) and 114 % of control (dose: 3.13 mg/kg/injection, schedule: Q01DX009 (ip), vehicle: saline with Tween-80).
`[N-]=[N+]=NC(=O)c1ccccn1`: the T/C by setting is: under setting [7], 101 % of control; (dose: 50.0 mg/kg/injection, schedule: Q01DX009 (ip), vehicle: saline with Tween-80) 113 % of control; under setting [5], 120 % of control.
In the case of `Nc1nc(=O)nc2[nH]c3c4cccc5cccc(c3nc12)c54` (tested in a mixture with another compound), the T/C reads like this: (dose: 12.5 mg/kg/injection, schedule: Q01DX005 (ip), vehicle: Klucel (hydroxypropylcellulose) (HPC)) 92 % of control and 98 % of control; under setting [6], 101 % of control and 104 % of control; under setting [2], 100 % of control and 106 % of control and 112 % of control; under setting [3], 116 % of control.
As for `CN(Cc1nc(-c2ccccc2)no1)c1nc(-c2ccccc2)no1`, the T/C was 97 % of control (dose: 100.0 mg/kg/injection, schedule: Q01DX001 (ip), vehicle: Klucel (hydroxypropylcellulose) (HPC)); 109 % of control (dose: 200.0 mg/kg/injection, schedule: Q01DX001 (ip), vehicle: Klucel (hydroxypropylcellulose) (HPC)); 95 % of control (dose: 400.0 mg/kg/injection, schedule: Q01DX001 (ip), vehicle: Klucel (hydroxypropylcellulose) (HPC)).
As for `CSCCCCCCCCCCSC`, the T/C runs as follows: under setting [1], 99 % of control; (dose: 100.0 mg/kg/injection, schedule: Q01DX009 (ip), vehicle: saline) 100 % of control; (dose: 200.0 mg/kg/injection, schedule: Q01DX009 (ip), vehicle: saline) 99 % of control.
